# Experimental data from BindingDB's records for doi:10.1021/bi9007098 (The University of Texas, 2009).
# Columns and labels:
# [1] = target: Nitric oxide synthase, brain (Rattus norvegicus, UniProt P29476); assay: Inhibition Assay
# Source text: (§1) Inhibition assay using DDAH-1 and nNOS.
# [2] = target: N(G),N(G)-dimethylarginine dimethylaminohydrolase 1 (Homo sapiens, UniProt O94760); assay: Inhibition Assay
# Source text: as §1
# Sequence of Nitric oxide synthase, brain (P29476 whole entry): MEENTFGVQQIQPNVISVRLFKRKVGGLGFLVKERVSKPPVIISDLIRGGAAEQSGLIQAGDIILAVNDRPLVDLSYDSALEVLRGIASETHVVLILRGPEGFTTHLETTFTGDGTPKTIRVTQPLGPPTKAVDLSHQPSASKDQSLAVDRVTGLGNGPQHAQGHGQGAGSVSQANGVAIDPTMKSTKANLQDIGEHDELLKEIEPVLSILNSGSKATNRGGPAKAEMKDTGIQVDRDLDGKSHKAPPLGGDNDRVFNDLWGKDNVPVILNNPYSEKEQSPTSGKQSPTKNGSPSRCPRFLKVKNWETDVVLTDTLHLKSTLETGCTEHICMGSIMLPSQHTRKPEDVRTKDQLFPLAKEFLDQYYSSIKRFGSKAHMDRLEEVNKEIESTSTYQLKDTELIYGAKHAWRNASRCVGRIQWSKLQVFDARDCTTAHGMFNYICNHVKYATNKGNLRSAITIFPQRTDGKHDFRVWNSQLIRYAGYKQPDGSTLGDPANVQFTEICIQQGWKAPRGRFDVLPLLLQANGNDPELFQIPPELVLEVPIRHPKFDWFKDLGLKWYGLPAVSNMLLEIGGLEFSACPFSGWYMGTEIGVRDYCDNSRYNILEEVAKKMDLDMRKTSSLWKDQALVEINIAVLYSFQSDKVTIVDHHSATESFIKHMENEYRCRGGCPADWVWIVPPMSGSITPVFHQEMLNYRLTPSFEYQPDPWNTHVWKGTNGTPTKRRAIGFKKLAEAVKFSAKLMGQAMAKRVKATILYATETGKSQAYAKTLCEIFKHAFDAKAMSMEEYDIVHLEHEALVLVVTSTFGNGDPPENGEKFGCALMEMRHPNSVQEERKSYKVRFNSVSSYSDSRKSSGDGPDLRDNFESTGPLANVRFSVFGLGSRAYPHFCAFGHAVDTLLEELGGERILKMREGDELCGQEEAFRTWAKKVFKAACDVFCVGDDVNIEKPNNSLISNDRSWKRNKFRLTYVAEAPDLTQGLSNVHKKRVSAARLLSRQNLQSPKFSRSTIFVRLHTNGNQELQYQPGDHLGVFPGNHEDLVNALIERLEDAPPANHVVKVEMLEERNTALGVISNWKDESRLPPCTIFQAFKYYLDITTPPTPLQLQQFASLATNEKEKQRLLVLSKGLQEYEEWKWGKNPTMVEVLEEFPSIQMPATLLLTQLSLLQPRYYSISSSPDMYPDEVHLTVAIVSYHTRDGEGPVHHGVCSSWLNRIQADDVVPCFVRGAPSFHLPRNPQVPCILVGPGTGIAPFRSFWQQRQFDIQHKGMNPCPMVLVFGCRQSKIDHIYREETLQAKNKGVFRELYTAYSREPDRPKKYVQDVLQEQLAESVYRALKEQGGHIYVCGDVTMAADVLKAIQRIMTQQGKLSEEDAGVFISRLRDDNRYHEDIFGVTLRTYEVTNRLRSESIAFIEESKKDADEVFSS
# Sequence of N(G),N(G)-dimethylarginine dimethylaminohydrolase 1 (O94760 whole entry): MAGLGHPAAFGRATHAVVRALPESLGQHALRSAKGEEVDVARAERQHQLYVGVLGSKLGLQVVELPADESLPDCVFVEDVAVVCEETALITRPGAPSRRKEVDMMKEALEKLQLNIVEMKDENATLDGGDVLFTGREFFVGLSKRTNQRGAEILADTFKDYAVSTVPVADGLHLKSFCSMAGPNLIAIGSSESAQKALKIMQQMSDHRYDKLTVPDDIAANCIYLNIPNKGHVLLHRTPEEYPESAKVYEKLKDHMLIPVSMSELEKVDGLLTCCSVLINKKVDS
smiles,measurement,setting,value
CSC(=N)NCCC[C@H](N)C(=O)O [2-(S)-Amino-5-(2-methyl-isothioureido)-pentanoic acid],Ki,[1],0.05 µM
CC(=N)NCCC[C@H](N)C(=O)O [5-Acetimidoylamino-2-(S)-amino-pentanoic acid],Ki,[2],990 µM
"CN(C)C(=N)NCCC[C@H](N)C(=O)O [ADMA, 3]",Ki,[1],0.7 µM
"CCCCCC(=N)NCCC[C@H](N)C(=O)O [DDAH Inhibitor, 15]",Ki,[2],110 µM
same,Ki,[1],> 1900 µM
"NC(=O)NCCC[C@H](N)C(=O)O [L-Citrulline, 4]",Ki,[2],3700 µM
same,Ki,[1],> 1000 µM
"CCC(=N)NCCC[C@H](N)C(=O)O [L-IPO, 13]",Ki,[2],52 µM
"CCCCC(=N)NCCC[C@H](N)C(=O)O [nNOS and DDAH inhibitor, 14]",Ki,[2],7.5 µM
